Source: US11525008B2, “Methods and pharmaceutical compositions for the treatment of lung cancer” (INSERM (INSTITUT NATIONAL DE LA SANTÉ ET DE LA RECHERCHE …, priority 2016, dated 2022)

Key:
Format in all cases: cell-based
[1] = test system: A549 spheroids; assay: collagen I gel invasion by spheroids, timelapse videomicroscopy, after FHIT silencing; conditions: irbinitinib 15 nM, FHIT siRNA, up to 72h, vs FHIT siRNA+DMSO p=0.0001, FIG. 4
Protocol: FIG. 4: Collagen I gel invasion by A549 spheroids induced by FHIT silencing is HER2-dependent. […] A. Representative phase-contrast images of spheroids at T0 and T=72h. B. Time course analysis of mean diameter of spheroids.** p<0.01; *** p<0.001.

[2] = test system: HBE-4-E6/E7 cell line; assay: matrigel modified Boyden chamber cell invasion assay after FHIT silencing; conditions: irbinitinib 10 nM; HBE-4-E6/E7 cells transfected with FHIT siRNA; FIG. 3A
Text: (§1) FIG. 3: Cell invasion induced by FHIT silencing is HER2-dependent.

[3] = test system: A549 cell line; assay: as above; conditions: irbinitinib 10 nM; A549 cells transfected with FHIT siRNA; FIG. 3B
Text: as §1

Cc1cc(Nc2ncnc3ccc(NC4=NC(C)(C)CO4)cc23)ccc1Oc1ccn2ncnc2c1 [irbinitinib, N4-(4-([1,2,4]Triazolo[1,5-a]pyridin-7-yloxy)-3-methylphenyl)-N6-(4,4-dimethyl-4,5-dihydrooxazol-2-yl)quinazoline-4,6-diamine]
spheroid invasion (tumor cell dispersion into collagen I matrix, mean spheroid diameter) induced by FHIT silencing [1]: reduces spheroid invasion | cell invasion induced by FHIT silencing [2]: reduces cell invasion | cell invasion induced by FHIT silencing [3]: reduces cell invasion
